Laboratory results reported in ChEMBL document CHEMBL1128922, “Thiophenesulfonamides as endothelin receptor antagonists” (Bioorg Med Chem Lett, 1996).

Tests used:
[1] = target: T1, Endothelin receptor type B (Homo sapiens, UniProt P24530); experiment: Compound was tested for binding affinity against Endothelin B receptor
T1 sequence (P24530 whole entry): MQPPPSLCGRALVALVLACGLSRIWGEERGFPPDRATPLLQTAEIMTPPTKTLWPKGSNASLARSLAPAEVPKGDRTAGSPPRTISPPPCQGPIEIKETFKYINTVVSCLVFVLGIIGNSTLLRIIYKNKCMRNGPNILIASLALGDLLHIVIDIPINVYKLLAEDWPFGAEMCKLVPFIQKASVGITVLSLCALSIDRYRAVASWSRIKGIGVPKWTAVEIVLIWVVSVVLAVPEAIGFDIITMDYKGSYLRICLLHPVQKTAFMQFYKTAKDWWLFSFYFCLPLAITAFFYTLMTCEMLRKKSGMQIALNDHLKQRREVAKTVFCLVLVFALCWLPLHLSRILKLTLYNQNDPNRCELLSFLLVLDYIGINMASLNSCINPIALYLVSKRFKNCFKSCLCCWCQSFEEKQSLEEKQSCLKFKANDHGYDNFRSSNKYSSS

[2] = target: T2, Endothelin-1 receptor (Homo sapiens, UniProt P25101); experiment: Compound was tested for binding affinity against Endothelin A receptor
T2 sequence (P25101 whole entry): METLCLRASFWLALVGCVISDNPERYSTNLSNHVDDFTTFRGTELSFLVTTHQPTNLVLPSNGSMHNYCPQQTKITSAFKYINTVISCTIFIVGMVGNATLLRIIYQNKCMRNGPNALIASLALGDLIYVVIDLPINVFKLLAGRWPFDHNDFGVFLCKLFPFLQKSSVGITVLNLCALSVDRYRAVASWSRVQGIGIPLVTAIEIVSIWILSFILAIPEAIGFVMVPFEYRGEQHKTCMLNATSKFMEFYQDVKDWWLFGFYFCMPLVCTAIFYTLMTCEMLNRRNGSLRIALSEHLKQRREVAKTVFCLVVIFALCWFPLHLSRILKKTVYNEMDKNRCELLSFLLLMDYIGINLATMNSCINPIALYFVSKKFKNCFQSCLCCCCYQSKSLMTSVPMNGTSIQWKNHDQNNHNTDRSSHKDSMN

SMILES	IC50 [1] [nM]	IC50 [2] [nM]
Cc1noc(NS(=O)(=O)c2ccccc2-c2ccccc2)c1Br	> 100000	16.2
CCCc1ccc(-c2ccsc2S(=O)(=O)Nc2onc(C)c2Br)cc1	8160	–
Cc1ccc(-c2ccsc2S(=O)(=O)Nc2onc(C)c2Br)cc1	95500	315
Cc1ccccc1-c1ccsc1S(=O)(=O)Nc1onc(C)c1Br	> 100000	306
Cc1cc(CC(C)C)ccc1-c1ccsc1S(=O)(=O)Nc1onc(C)c1Br	1510	47.9
COc1ccc(-c2ccsc2S(=O)(=O)Nc2onc(C)c2Br)cc1	62100	334
CCCc1ccc(-c2ccsc2S(=O)(=O)Nc2onc(C)c2Br)c(C)c1	2910	42.9
Cc1noc(NS(=O)(=O)c2ccsc2-c2ccccc2)c1Br	74100	603
Cc1noc(NS(=O)(=O)c2cc(-c3ccccc3)cs2)c1Br	13500	3390
Cc1cc(CCC(C)C)ccc1-c1ccsc1S(=O)(=O)Nc1onc(C)c1Br	2450	115
Cc1noc(NS(=O)(=O)c2sccc2Cc2ccccc2)c1Br	39800	2600
COc1cccc(-c2ccsc2S(=O)(=O)Nc2onc(C)c2Br)c1	56300	1320
Cc1noc(NS(=O)(=O)c2sccc2-c2ccc(CCC(C)C)cc2)c1Br	–	182
Cc1noc(NS(=O)(=O)c2sccc2Oc2ccccc2)c1Br	35500	1450
Cc1noc(NS(=O)(=O)c2sccc2-c2ccccc2)c1Br	64400	819
Cc1noc(NS(=O)(=O)c2ccccc2)c1Br	> 100000	2510
Cc1noc(NS(=O)(=O)c2cccs2)c1Br	> 100000	1910
Cc1noc(NS(=O)(=O)c2ccsc2)c1Br	> 100000	2750
Cc1noc(NS(=O)(=O)c2sccc2-c2ccc(CC(C)C)cc2)c1Br	2900	–
